Data published in patent publication US10981904B2, “1,3,4-thiadiazole compounds and their use in treating cancer” (Cancer Research Technology Limited, priority 2015, dated 2021).
pIC50: −log10 of the molar value.

These molecules were tested on NCI-H1703 cells (assay: GLS Cell Proliferation Assay (NCI-H1703 cell proliferation)). Details: Homo sapiens, NCI-H1703, 120 h, NCI-H1703 cells, 5 days; read-out: Assay c) Prolif Mean IC50.
Type: cell-based
Text: The following assays were used to measure the effects of the compounds described herein: a) GLS Enzyme Potency Assay; b) GLS Cell Potency Assay; c) GLS Cell Proliferation Assay. During the description of the assays, generally: • i. The following abbreviations have been used: CO2=Carbon dioxide; DMEM=Dulbecco's Modified Eagle Medium; DMSO=Dimethyl sulphoxide; EDTA=Ethylenediaminetetraacetic acid; EGTA=Ethylene glycol tetraacetic acid; FCS=Foetal calf serum; h=Hour(s); NBS=Non-binding surface; SDS=Sodium dodecyl sulphate; TRIS=Tris(Hydroxymethyl)aminomethane. • ii. IC50 values were calculated using a smart fitting model in Genedata.
Assay c): GLS Cell Proliferation Assay
The ability of compounds to inhibit cell growth was measured using a 384 well plate NCI-H1703 cell proliferation assay. NCI-H1703 cells were grown in phenol red free RPMI1640, 10% FCS and 2 mM glutamine and seeded at a density of 750 cells per well in 40 μl of growth medium into clear-bottom 384 well assay plates (Corning product code 3712) and incubated for 24 h at 37° C., 5% CO2. […] DMSO concentration was maintained at 0.3% by back filling with DMSO solution. Plates were incubated for 5 days at 37° C., 5% CO2, Sytox Green and Saponin added to final concentration of 2 μM and 0.25% respectively and incubated for 6 h prior to analysis. […] IC50 values were calculated by curve fitting to max inhibition of day zero growth using GeneData software analysis.

SMILES | pIC50
COC1CN(c2cccc([C@H](OC)C(=O)Nc3nnc(N[C@@H]4CCN(c5cccnn5)C4)s3)c2)C1 (single isomer, unassigned) [3(b)] | 6.57
COc1cc(OC)cc([C@H](OC)C(=O)Nc2nnc(N[C@@H]3CCN(c4ccc(C)nn4)C3)s2)c1 (single isomer, unassigned) [4(b)] | 7.56
CO[C@H](C(=O)Nc1nnc(N[C@@H]2CCN(c3cccnn3)C2)s1)c1ccc(F)c(N2CC(F)C2)c1 (single isomer, unassigned) [8(b)] | 7.41
CO[C@H](C(=O)Nc1nnc(N[C@@H]2CCN(c3cccnn3)C2)s1)c1cccc(C2COC2)c1 (single isomer, unassigned) [18(b)] | 6.16
COC[C@H](C(=O)Nc1nnc(N[C@@H]2CCN(c3ccc(C)nn3)C2)s1)c1ccccc1 (single isomer, unassigned) [45(b)] | 8.04
CO[C@H](C(=O)Nc1nnc(N[C@@H]2CCN(c3cccnn3)C2)s1)c1cccc(N2CC(F)C2)c1 (single isomer, unassigned) [Example 1(a)] | 8.59
CO[C@H](C(=O)Nc1nnc(N[C@@H]2CCN(c3cccnn3)C2)s1)c1cccc(N2CC(F)C2)c1 (single isomer, unassigned) [Example 1(b)] | 6.88
COC1CN(c2cccc([C@H](OC)C(=O)Nc3nnc(N[C@@H]4CCN(c5cccnn5)C4)s3)c2)C1 (single isomer, unassigned) [Example 3(a)] | 8.58
COc1cc(OC)cc([C@H](OC)C(=O)Nc2nnc(N[C@@H]3CCN(c4ccc(C)nn4)C3)s2)c1 (single isomer, unassigned) [Example 4(a)] | 8.53
COC(C(=O)Nc1nnc(N[C@@H]2CCN(c3cccnn3)C2)s1)c1cccc(C2COC2)c1 (single isomer, unassigned) [Example 18(a)] | 7.87
COCC(C(=O)Nc1nnc(N[C@@H]2CCN(c3ccc(C)nn3)C2)s1)c1ccccc1 (single isomer, unassigned) [Example 45(a)] | 5.64
COC(C(=O)Nc1nnc(N[C@@H]2CCN(c3ccc(F)nn3)C2)s1)c1cccc(N2CC(F)(F)C2)c1 (stereo partly drawn) [Example 42, 2-[3-(3,3-difluoroazetidin-1-yl)phenyl]-N-[5-[[(3R)-1-(6-fluoropyridazin-3-yl)pyrrolidin-3-yl]amino]-1,3,4-thiadiazol-2-yl]-2-methoxy-acetamide] | 7.09
